PMC10076671, “Spider venom-derived peptide JZTX-14 prevents migration and invasion of breast cancer cells via inhibition of sodium channels” (Frontiers in Pharmacology, 2023)
Where a SMILES comes first, the peptide text is derived from it. Bridges are numbered along the chain shown (N, C = ends).

Columns and labels:
[1] = tested on: human breast cancer cells; details: ref Wannous et al., 2015; cited from earlier work
Source text: (§1) Voltage-gated sodium channels (Navs; VGSCs) are membrane proteins with nine isoforms responsible for the rapid upstroke of action potentials in excitable cells ([de Lera Ruiz and Kraus, 2015]). VGSCs are present in excitable and non-excitable cells, including microglia, astrocytes, immune cells, fibroblasts, and cancer cells, and play various biological roles, such as tumour cell migration and immune cell phagocytosis ([Black and Waxman, 2013]; [Roger et al., 2015]). Nav1.5, encoded by SCN5A, is an essential receptor in breast cancer growth and migration ([Rajaratinam et al., 2022]).

breast cancer cells = details: inhibiting the PI3K/Akt/mTOR signalling pathway, ref Lim et al., 2019; cited from earlier work
Source text: A peptide with anticancer activity was isolated and purified from animal venom to construct a new anticancer drug library. Compared to small-molecule drugs, peptide drugs have the advantages of high selectivity and affinity for molecular targets, and it is not easy to make tumours resistant to drugs ([Wu et al., 2014]). To date, many anticancer peptides have been screened from animal venom. […] Melittin, ...

breast cancer cell = details: ref Driffort et al., 2014; cited from earlier work
Source text: as §1

Nav1.5 = format: cell-based; details: Discussion: HEK293 cells heterologously expressing Nav1.5, 0.1 and 1 μM
Method: Sodium currents in experimental cells were recorded at room temperature (22°C–25°C) using an EPC-10 patch-clamp amplifier (HEKA, Germany) in a whole-cell patch-clamp configuration. Recording pipettes were made from borosilicate glass capillaries (VWR, United States) using a PC-10 puller (Narishige, Japan). The inner solution (mM): KCl 130, NaCl 15, CaCl2 0.37, MgCl2 1 EGTA 1, HEPES 10, pH 7.2, resistance was measured as 1.8 MO. The outer solution was composed of (mM): NaCl 140, KCl 3, MgCl2 1, CaCl2 1, HEPES 10, pH 7.2. To minimize voltage errors, the series resistance compensation was set to 80%. The P/4 protocol was used to subtract the linear capacitance and leakage current. Experimental data were acquired and analyzed using the pulse fit 8.0 program (HEKA, Germany). The needed concentrations of toxin dissolved in external solution were applied to the cell surface by microinjector.
To determine the biological activity of synthetic and natural JZTX-14 on Nav1.5, we observed their effects on HEK293T cells heterologously expressing Nav1.5 using a whole-cell voltage-clamp configuration. The current traces were induced by a 50 ms depolarisation potential of −30 mV at a holding potential of −100 mV. Currents were recorded by adding 0.1 μM and 0.5 μM of JZTX-14 to the solution.

MDA-MB-231 cells [2] = details: ref Yang et al., 2012; cited from earlier work
Source text: Voltage-gated sodium channels (Navs; VGSCs) are membrane proteins with nine isoforms responsible for the rapid upstroke of action potentials in excitable cells ([de Lera Ruiz and Kraus, 2015]). VGSCs are present in excitable and non-excitable cells, including microglia, astrocytes, immune cells, fibroblasts, and cancer cells, and play various biological roles, such as tumour cell migration and immune cell phagocytosis ([Black and Waxman, 2013]; [Roger et al., 2015]). Nav1.5, encoded by SCN5A, is an essential receptor in breast cancer growth and migration ([Rajaratinam et al., 2022]). […] Nav1.5, a pore-forming alpha subunit of VGSC encoded by SCN5A, is not expressed in normal breast tissue or cells but is highly expressed in the breast cancer cell line MDA-MB-231 ([Dutta et al., 2018]). Elevated Nav1.5 expression promotes cell invasion and breakdown of extracellular matrix proteins, maintains ac ... || A peptide with anticancer activity was isolated and purified from animal venom to construct a new anticancer drug library. Compared to small-molecule drugs, peptide drugs have the advantages of high selectivity and affinity for molecular targets, and it is not easy to make tumours resistant to drugs ([Wu et al., 2014]). To date, many anticancer peptides have been screened from animal venom. […] Melittin, ...

MDA-MB-231 cells [3] = details: strongly metastatic MDA-MB-231 cells; ref Yang et al., 2012; cited from earlier work
Source text: as §1

For CC/C=C\C/C=C\C/C=C\C/C=C\C/C=C\C/C=C\CCC(=O)O [DHA], the “Invasiveness of Nav1.5-dependent cancer cells” value [1] is listed as “reducing the invasiveness of Nav1.5-dependent cancer cells” and the “Nav1.5 current and NHE-1 activity” value [1] is listed as “inhibits Nav1.5 current and NHE-1 activity”.
For “Melittin: the main peptide component of Apis mellifera venom”, the “EGF-induced cell movement and invasion” value (breast cancer cells) is given as “inhibits EGF-induced cell movement and invasion”.
In the case of COc1ccccc1OCC(O)CN1CCN(CC(=O)Nc2c(C)cccc2C)CC1 (stereo not shown) [Ranolazine], the “Nav1.5-mediated breast cancer cell invasiveness and lung colonisation” value (breast cancer cell) is listed as “inhibits Nav1.5-mediated breast cancer cell invasiveness and lung colonisation”.
For CC[C@H](C)[C@H](NC(=O)[C@@H]1CSSC[C@@H]2NC(=O)[C@@H]3CCCN3C(=O)[C@@H]3CCCN3C(=O)[C@H](CCC(N)=O)NC(=O)CNC(=O)[C@@H]3CCCN3C(=O)[C@H](Cc3c[nH]cn3)NC(=O)[C@@H]3CSSC[C@H](NC(=O)[C@H](C)NC(=O)[C@H](CC(C)C)NC(=O)CNC(=O)[C@H](CO)NC(=O)[C@H](CSSC[C@H](NC(=O)CN)C(=O)N[C@@H](CCC(N)=O)C(=O)N[C@@H](CCCCN)C(=O)N[C@@H](Cc4ccccc4)C(=O)N[C@@H](Cc4ccccc4)C(=O)N[C@@H](Cc4c[nH]c5ccccc45)C(=O)N[C@@H]([C@@H](C)O)C(=O)N3)NC2=O)C(=O)N[C@@H]([C@@H](C)O)C(=O)N[C@@H](Cc2c[nH]c3ccccc23)C(=O)N2CCC[C@H]2C(=O)N[C@@H]([C@@H](C)O)C(=O)N[C@@H](CCC(=O)O)C(=O)N[C@@H]([C@@H](C)CC)C(=O)N1)C(=O)N[C@@H](CC(C)C)C(N)=O [natural JZTX-14] (H-GCQKFFWTCHPGQPPCCSGLACTWPTEICIL-NH2; disulfide 2-17, 9-22, 16-29), the “Inhibition of Nav1.5 channels (in words)” value (Nav1.5) was “significantly inhibited Nav1.5 channels in a concentration-dependent manner”.
For O=C1NC(=O)C(c2ccccc2)(c2ccccc2)N1 [Phenytoin], the Migration and invasion (MDA-MB-231 cells [2]) is listed as “significantly inhibiting the migration and invasion” and the “Transient and persistent Na+ current” value (MDA-MB-231 cells [3]) is listed as “inhibited the transient and persistent Na^+ current”.
